Assay [1] concerns Candida albicans (ATCC 10231). The assay is described as follows: Minimal growth inhibitory concentration by turbidity, Candida albicans. It counts as cell-based. As to conditions: Candida albicans ATCC 10231, fluid Sabouraud medium, 37 degree, turbidity one day after inoculation. The procedure: (§1) Candida albicans was obtained from ATCC (ATCC 10231) and cultured in fluid Sabouraud medium at 37 degree. The turbidity was measured one day after the innoculation and treatment with CBP501 at 0.03, 0.1, 0.3, 1, 3, 10, 30, 100 μg/ml. Candida glabrata was obtained from ATCC (ATCC 36583) and cultured in fluid Sabouraud medium at 28 degree. The turbidity was measured two days after the innoculation and treatment with CBP501 at 0.03, 0.1, 0.3, 1, 3, 10, 30, 100 μg/ml. Cryptococcus neoformans was obtained from ATCC (ATCC 24067) and cultured in fluid Sabouraud medium at 37 degree. The turbidity was measured two days after the innoculation and treatment with CBP501 at 0.03, 0.1, 0.3, 1, 3, 10, 30, 100 μg/ml. Trichophyton mentagroohytes was obtained from ATCC (ATCC 9533) and cultured in potato dextrose broth at 28 degree. The turbidity was measured three days after the innoculation and treatment with CBP501 at 0.03, 0.1, 0.3, 1, 3, 10, 30, 100 μg/ml. Minimal growth inhibitory concentrations were determined as the concentration of minimal CBP501 where the turbidity was not increased (Table 2).

For assay [2], the system named is Candida glabrata (ATCC 36583). The assay is described as follows: Minimal growth inhibitory concentration by turbidity, Candida glabrata. It counts as cell-based. As to conditions: Candida glabrata ATCC 36583, fluid Sabouraud medium, 28 degree, turbidity two days after inoculation. As for the experimental part: as §1
Assay [3] deals with Cryptococcus neoformans (ATCC 24067). The assay is described as follows: Minimal growth inhibitory concentration by turbidity, Cryptococcus neoformans. Type of assay: cell-based. As to conditions: Cryptococcus neoformans ATCC 24067, fluid Sabouraud medium, 37 degree, turbidity two days after inoculation. As for the experimental part:
as §1

For assay [4], the system named is Trichophyton mentagroohytes (ATCC 9533). The assay is described as follows: Minimal growth inhibitory concentration by turbidity, Trichophyton mentagroohytes. Type of assay: cell-based. As to conditions: Trichophyton mentagroohytes ATCC 9533, potato dextrose broth, 28 degree, turbidity three days after inoculation. The procedure:
as §1

Another assay concerns the target T1, ATM (Homo sapiens, UniProt Q13315).
T1 construct: ATM and ATR: Full length recombinant human, 293T cells; host or cells: 293T cells
The experiment in a line: In vitro phosphorylation inhibition, ATM (ELISA). It counts as biochemical. As to conditions: CBP501 0.5, 5, 50 uM, 30° C., compared to cyclin-dependent kinases, PKA and PKC (FIG. 1). As for the experimental part: (§2) Source of kinases, measurement method, substrate, first antibody, second antibody, reaction buffer, reaction volume, ATP concentration, and reaction time are as follows. ATM and ATR: Full length recombinant human, 293T cells, enzyme linked immunosorbent assay (ELISA), GST-p53 (aal -99), anti-p53-phosphorylated Serl 5, Horse radish peroxidase (HRP)-labeled anti-rabbit IgG, 1×Mg/Mn kinase buffer (20 mM Hepes-KOH (pH7.5), 1 mM DTT, 80 ug/ml BSA, 10 mM MgCl2, 10 mM MnCl2), 50 ul, 100 uM, and 60 min. Chk1, Chk2 and c-Tak1: Full length recombinant human from SF-9 cells for Chk1, Full length recombinant human from E. Coli for Chk2 and Full length recombinant human from SF-9 cells for c-Tak1, respectively, ELISA, GST-Cdc25C (aa167–267), anti-Cdc25C-phosphorylated Ser216, HRP-labelled anti-mouse IgG, 1×Mg kinase buffer (20 mM Hepes-KOH (pH7.5), 1 mM DTT, 80 ug/ml BSA, 10 mM MgCl2), 50 ul, 50 uM, and 60 min. PLK-1: Human full length GST fusion, E. Coli, ELISA, GST fusion protein Y, Anti-phosphorylated Ser/Thr monoclonal, HRP-labelled anti-mousr IgG, 1×Mg kinase buffer, 30 ul, 50 uM, and 60 min. […]
(§3) All incubations were at 30° C. […] The phosphorylated substrate was detected with either ELISA or RIA as described above. […] The quantity of phosphorylated substrate for each kinase reaction without CBP501 was nominated as 100%.

Another assay has as its target T2, ATR (Homo sapiens, UniProt Q13535).
T2 construct: ATM and ATR: Full length recombinant human, 293T cells; host or cells: 293T cells
The experiment in a line: In vitro phosphorylation inhibition, ATR (ELISA). Type of assay: biochemical. As to conditions: CBP501 0.5, 5, 50 uM, 30° C., compared to cyclin-dependent kinases, PKA and PKC (FIG. 1). As for the experimental part:
as §2, §3

Another assay concerns the target T3, CHK1 (Homo sapiens, UniProt O14757).
T3 construct: Full length recombinant human from SF-9 cells for Chk1; host or cells: SF-9 cells
T3 sequence (O14757 1-476): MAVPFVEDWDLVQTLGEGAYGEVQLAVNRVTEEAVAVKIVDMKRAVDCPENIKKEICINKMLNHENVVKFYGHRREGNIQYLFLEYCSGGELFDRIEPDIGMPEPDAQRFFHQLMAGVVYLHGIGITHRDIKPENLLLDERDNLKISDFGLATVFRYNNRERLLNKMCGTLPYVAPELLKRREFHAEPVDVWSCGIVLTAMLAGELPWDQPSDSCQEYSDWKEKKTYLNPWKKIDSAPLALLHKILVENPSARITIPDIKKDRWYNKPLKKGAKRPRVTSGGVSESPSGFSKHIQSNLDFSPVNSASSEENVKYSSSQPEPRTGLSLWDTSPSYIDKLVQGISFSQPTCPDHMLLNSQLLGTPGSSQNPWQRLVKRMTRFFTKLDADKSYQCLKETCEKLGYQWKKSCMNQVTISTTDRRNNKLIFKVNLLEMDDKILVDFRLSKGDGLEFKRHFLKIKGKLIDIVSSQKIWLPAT
The assay is described as follows: In vitro phosphorylation inhibition, CHK1 (ELISA). It counts as biochemical. As to conditions: CBP501 0.5, 5, 50 uM, 30° C., compared to cyclin-dependent kinases, PKA and PKC (FIG. 1). The procedure: as §2, §3

A further assay addresses T4, CHK2 (Homo sapiens, UniProt O96017).
T4 construct: Full length recombinant human from E. Coli for Chk2; host or cells: E. coli
The experiment in a line: In vitro phosphorylation inhibition, CHK2 (ELISA). It counts as biochemical. As to conditions: CBP501 0.5, 5, 50 uM, 30° C., compared to cyclin-dependent kinases, PKA and PKC (FIG. 1). The procedure: as §2, §3

In the next assay the target is T5, PLK1 (Homo sapiens, UniProt P53350).
T5 construct: PLK-1: Human full length GST fusion, E. Coli; GST; host or cells: E. coli
The experiment in a line: In vitro phosphorylation inhibition, PLK1 (ELISA). It counts as biochemical. As to conditions: CBP501 0.5, 5, 50 uM, 30° C., compared to cyclin-dependent kinases, PKA and PKC (FIG. 1). As for the experimental part: as §2, §3
In general terms: In an ELISA, binding on a coated surface is turned into a signal by an enzyme label.

In the next assay the target is T6, Wee1 (Homo sapiens, UniProt P30291).
T6 construct: Weel: Human fulllength recombinant with GST fusion, E. Coli; GST; host or cells: E. coli
The experiment in a line: In vitro phosphorylation inhibition, Wee1 (ELISA). It counts as biochemical. As to conditions: CBP501 0.5, 5, 50 uM, 30° C., compared to cyclin-dependent kinases, PKA and PKC (FIG. 1). The procedure:
as §2, §3

Another assay has as its system yeast AH109. The experiment in a line: Growth inhibition of yeast AH109 on YAPD plate. As to conditions: 1 hr incubation at 30° in liquid YAPD, then 3 days on YAPD agarose plate (FIG. 2). It counts as cell-based, Saccaromices Cerevisie. The procedure: Cell culture Saccaromices Cerevisie AH109 was purchased from CLONTECH (Palo Alto, Calif.). YAPD plates were prepared using YPD agar purchased from CLONTECH and adenine purchased from Sigma-Aldrich Co. The cells were cultured at 30 degree.
Logarithmically growing yeast AH109 in liquid medium (YAPD) was diluted to 1 to 10 with warm liquid YAPD medium with or without CBP501 and/or amphotericin B at the indicated doses. After 1 hr incubation at 30° whole solution was poured onto the YAPD agarose plate. The plate was then incubated 3 days and the samples were phtographed (FIG. 2).

T4 sequence (O96017 whole entry): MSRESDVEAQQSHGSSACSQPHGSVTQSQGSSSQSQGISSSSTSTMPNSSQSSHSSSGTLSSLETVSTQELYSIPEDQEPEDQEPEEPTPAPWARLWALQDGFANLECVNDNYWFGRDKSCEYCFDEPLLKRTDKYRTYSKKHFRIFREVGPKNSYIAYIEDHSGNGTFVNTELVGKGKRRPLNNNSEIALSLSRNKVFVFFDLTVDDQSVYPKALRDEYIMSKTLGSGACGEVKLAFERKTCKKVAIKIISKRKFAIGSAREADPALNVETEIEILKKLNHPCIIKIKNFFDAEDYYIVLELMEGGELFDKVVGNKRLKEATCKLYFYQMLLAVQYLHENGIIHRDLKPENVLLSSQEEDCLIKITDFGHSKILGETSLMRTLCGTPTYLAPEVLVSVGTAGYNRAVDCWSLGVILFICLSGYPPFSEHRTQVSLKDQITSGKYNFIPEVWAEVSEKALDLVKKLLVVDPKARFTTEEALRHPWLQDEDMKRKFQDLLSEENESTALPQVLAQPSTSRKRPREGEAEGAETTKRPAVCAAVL
T1 sequence (Q13315 whole entry): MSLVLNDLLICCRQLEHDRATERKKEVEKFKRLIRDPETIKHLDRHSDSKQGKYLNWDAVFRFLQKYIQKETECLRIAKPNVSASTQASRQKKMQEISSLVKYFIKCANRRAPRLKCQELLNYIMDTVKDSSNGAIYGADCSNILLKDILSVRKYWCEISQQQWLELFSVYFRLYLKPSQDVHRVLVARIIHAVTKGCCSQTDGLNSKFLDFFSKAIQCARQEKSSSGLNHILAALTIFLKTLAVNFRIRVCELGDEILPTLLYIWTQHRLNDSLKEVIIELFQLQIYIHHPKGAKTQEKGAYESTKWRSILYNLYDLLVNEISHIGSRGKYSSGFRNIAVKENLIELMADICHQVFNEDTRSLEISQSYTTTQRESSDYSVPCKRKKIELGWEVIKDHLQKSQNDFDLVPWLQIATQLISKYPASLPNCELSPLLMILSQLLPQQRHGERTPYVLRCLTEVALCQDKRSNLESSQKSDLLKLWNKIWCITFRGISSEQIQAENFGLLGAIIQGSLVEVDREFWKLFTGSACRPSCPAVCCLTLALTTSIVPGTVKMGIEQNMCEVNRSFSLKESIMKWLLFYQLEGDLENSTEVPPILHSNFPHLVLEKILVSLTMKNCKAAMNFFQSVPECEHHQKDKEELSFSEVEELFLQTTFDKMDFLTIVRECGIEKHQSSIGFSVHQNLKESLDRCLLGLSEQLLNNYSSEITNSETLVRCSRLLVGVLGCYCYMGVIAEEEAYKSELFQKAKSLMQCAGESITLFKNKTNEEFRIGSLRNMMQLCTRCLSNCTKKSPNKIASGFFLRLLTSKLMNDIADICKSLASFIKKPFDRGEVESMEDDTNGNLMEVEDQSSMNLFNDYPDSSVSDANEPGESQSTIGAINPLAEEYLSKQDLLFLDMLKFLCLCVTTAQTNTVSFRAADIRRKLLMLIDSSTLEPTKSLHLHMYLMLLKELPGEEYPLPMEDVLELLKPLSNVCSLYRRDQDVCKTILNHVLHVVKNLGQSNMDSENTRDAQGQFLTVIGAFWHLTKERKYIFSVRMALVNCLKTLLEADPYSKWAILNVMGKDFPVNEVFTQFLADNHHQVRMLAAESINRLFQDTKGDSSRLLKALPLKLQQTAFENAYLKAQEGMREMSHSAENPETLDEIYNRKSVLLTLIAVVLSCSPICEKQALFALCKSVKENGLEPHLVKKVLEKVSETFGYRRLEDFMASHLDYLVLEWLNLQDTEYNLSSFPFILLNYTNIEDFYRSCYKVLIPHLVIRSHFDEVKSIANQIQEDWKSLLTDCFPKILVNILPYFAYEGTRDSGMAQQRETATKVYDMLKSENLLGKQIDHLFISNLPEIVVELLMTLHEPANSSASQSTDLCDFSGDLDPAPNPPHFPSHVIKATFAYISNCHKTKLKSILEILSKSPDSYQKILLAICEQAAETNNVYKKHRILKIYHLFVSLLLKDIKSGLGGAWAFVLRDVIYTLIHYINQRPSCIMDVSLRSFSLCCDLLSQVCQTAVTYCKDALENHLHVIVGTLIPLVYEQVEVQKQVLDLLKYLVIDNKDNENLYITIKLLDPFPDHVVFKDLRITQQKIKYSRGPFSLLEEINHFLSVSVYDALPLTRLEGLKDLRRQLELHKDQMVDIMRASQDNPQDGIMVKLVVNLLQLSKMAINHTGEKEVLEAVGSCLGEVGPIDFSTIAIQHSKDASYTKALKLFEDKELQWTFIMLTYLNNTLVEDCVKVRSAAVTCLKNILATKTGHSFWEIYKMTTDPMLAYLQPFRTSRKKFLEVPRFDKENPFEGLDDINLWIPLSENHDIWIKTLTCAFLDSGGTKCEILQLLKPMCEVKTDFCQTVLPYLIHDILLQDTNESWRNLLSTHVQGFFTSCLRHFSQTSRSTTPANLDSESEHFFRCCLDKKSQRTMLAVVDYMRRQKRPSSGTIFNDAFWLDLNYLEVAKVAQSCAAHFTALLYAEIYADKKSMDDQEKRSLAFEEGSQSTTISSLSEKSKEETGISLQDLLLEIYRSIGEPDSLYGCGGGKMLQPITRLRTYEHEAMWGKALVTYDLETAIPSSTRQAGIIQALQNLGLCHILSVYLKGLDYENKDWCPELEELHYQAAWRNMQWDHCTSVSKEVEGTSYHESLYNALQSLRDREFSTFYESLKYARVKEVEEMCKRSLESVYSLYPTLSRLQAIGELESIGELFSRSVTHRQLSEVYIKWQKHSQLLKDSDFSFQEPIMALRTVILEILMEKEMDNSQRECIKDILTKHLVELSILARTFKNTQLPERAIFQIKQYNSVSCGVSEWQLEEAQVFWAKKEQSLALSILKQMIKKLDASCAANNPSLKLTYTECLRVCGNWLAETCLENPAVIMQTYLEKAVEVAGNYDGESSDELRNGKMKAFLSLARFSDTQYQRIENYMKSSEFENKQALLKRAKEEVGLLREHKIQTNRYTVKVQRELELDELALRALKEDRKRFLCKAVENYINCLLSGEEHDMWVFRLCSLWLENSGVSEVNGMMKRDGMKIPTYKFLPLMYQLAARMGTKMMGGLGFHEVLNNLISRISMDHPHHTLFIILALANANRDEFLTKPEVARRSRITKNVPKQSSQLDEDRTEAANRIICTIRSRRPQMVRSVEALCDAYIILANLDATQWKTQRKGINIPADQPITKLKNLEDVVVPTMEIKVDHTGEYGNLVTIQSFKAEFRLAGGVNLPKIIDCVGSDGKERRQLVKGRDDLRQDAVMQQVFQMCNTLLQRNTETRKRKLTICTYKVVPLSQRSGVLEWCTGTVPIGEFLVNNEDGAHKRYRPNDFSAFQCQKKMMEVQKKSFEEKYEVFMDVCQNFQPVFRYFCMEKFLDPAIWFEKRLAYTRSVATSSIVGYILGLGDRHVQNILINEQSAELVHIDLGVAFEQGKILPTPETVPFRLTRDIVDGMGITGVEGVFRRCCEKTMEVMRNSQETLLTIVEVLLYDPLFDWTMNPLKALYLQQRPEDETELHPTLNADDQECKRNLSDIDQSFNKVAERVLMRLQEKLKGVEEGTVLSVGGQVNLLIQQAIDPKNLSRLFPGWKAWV
T6 sequence (P30291 whole entry, the tested form may be a part): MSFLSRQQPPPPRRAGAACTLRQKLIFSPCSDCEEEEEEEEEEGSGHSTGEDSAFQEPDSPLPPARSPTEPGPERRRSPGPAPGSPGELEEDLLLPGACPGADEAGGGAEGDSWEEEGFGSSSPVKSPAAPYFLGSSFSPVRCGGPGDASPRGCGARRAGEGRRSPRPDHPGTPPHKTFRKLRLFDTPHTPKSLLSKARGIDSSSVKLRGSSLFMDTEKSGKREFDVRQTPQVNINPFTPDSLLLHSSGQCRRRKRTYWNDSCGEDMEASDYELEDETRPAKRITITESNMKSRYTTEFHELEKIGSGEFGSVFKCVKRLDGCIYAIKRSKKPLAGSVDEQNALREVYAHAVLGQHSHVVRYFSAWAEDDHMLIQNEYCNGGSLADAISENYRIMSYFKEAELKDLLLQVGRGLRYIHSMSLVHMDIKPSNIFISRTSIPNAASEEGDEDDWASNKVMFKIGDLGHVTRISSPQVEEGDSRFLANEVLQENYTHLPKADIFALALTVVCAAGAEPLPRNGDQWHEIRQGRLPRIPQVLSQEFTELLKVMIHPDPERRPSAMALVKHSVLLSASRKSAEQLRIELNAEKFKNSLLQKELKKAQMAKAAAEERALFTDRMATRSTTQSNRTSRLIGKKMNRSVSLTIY
T5 sequence (P53350 whole entry, the tested form may be a part): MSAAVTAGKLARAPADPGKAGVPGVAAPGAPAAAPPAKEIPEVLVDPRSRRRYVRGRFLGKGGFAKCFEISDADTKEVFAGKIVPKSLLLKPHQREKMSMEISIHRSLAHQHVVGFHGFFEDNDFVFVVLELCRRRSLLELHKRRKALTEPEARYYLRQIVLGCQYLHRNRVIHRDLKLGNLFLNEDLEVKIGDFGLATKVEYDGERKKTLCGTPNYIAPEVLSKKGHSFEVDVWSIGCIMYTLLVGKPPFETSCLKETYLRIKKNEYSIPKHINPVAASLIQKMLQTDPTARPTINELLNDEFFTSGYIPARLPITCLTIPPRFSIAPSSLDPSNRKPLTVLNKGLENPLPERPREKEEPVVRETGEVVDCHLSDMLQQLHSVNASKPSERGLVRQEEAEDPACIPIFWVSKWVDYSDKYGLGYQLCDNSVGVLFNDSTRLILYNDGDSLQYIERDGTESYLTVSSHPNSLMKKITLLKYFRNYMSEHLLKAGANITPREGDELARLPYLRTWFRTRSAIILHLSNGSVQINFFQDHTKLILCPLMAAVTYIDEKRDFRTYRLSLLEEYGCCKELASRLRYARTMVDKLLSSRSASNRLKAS

Consider “(d-Bpa)(d-Ser)(d-Trp)(d-Ser) (d-Phe2,3,4,5,6-F)(d-Cha)(d-Arg)(d-Arg)(d-Arg)(d-Gln)(d-Arg)(d-Arg) [CBP501]”, for which the “MIC (minimul inhibitory concentration)” value in [1] worked out at 100 µg/mL; in assay [2], 30 µg/mL; in [3], 1 µg/mL; in [4], 100 µg/mL. For the same substance, the “inhibition of kinase activity (phosphorylation of substrate)” value at ATM, against ATR, on CHK1, at CHK2, against PLK1 and at Wee1 was “strongly inhibited” in each case. Further, the “growth of yeast AH109 on YAPD plate” value with yeast AH109 is on record as “growth inhibition”.

The values above are taken from patent US7125842B2, “Anti-fungal compounds and methods of use” (CanBas Co. Ltd., priority 2003, dated 2006).
